Data reported in ChEMBL document CHEMBL1201862, “PubChem BioAssay data set” (2004).
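Following 48 hours of exposure in 96-well plates, responses at five concentrations were used to interpolate endpoints linearly. Abbreviation: GI50, concentration required for 50% inhibition of growth.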 The source made the active and inactive calls. Rule as the data show it: active = GI50 up to about 1.1 µM and inactive = higher.

How the values were obtained:
Experiment in all cases: NCI anticancer screen, dose series, 48 h
CCRF-CEM = tested on: CCRF-CEM
K562 = tested on: K562
KM12 = tested on: KM12
T47D = tested on: T47D
HCC 2998 = tested on: HCC 2998
NCI-H23 = tested on: NCI-H23
SF-295 = tested on: SF-295
IGROV-1 = tested on: IGROV-1
M14 = tested on: M14
OVCAR-4 = tested on: OVCAR-4
COLO 205 = tested on: COLO 205
HOP-62 = tested on: HOP-62
MDA-MB-231 = tested on: MDA-MB-231
BT-549 = tested on: BT-549
SK-MEL-2 = tested on: SK-MEL-2
MDA-N = tested on: MDA-N
RPMI-8226 = tested on: RPMI-8226
SK-MEL-5 = tested on: SK-MEL-5
M19-MEL = tested on: M19-MEL

SMILES | GI50 (CCRF-CEM) | GI50 (K562) | GI50 (KM12) | GI50 (T47D) | GI50 (HCC 2998) | GI50 (NCI-H23) | GI50 (SF-295) | GI50 (IGROV-1) | GI50 (M14) | GI50 (OVCAR-4) | GI50 (COLO 205) | GI50 (HOP-62) | GI50 (MDA-MB-231) | GI50 (BT-549) | GI50 (SK-MEL-2) | GI50 (MDA-N) | GI50 (RPMI-8226) | GI50 (SK-MEL-5) | GI50 (M19-MEL)
NS(=O)(=O)c1ccc(NNc2c3ccccc3nc3c(C(=O)Nc4ccc(S(N)(=O)=O)cc4)cccc23)cc1 | 14.5 µM (inactive) | 21.2 µM (inactive) | 27.9 µM (inactive) | 6.27 µM (inactive) | 17.4 µM (inactive) | 28.8 µM (inactive) | 37.7 µM (inactive) | 19.3 µM (inactive) | 55.3 µM (inactive) | 19.6 µM (inactive) | 39.9 µM (inactive) | 57.3 µM (inactive) | 21.6 µM (inactive) | 5.85 µM (inactive) | 13 µM (inactive) | 65 µM (inactive) | 24.9 µM (inactive) | 34.9 µM (inactive) | 
O=C1/C(=C/c2ccc(Cl)cc2)Sc2scc(-c3cccc([N+](=O)[O-])c3)[n+]21 | 0.259 µM (active) | 0.459 µM (active) | 2.89 µM (inactive) | 3.5 µM (inactive) | 2.8 µM (inactive) | 4.95 µM (inactive) | 11.4 µM (inactive) | 2.96 µM (inactive) | 3.57 µM (inactive) | 6.97 µM (inactive) | 1.86 µM (inactive) | 19.5 µM (inactive) | 5.22 µM (inactive) | 2.2 µM (inactive) | 12.9 µM (inactive) | 3.36 µM (inactive) | 1.39 µM (inactive) | 2.61 µM (inactive) | 
CN(CCCN=C=S)CCCN1c2ccccc2CCc2ccccc21 | 1.85 µM (inactive) | 0.45 µM (active) | 1.73 µM (inactive) | 2.07 µM (inactive) | 1.31 µM (inactive) | 1.64 µM (inactive) | 1.71 µM (inactive) | 1.79 µM (inactive) | 1.71 µM (inactive) | 1.85 µM (inactive) | 1.66 µM (inactive) | 1.83 µM (inactive) | 1.8 µM (inactive) | 2.83 µM (inactive) | 1.86 µM (inactive) | 1.71 µM (inactive) | 1.87 µM (inactive) | 1.78 µM (inactive) | 
CN1CCC2(CC1)SC[C@H]1C(=O)N(c3ccc(Cl)cc3)C(=O)N12 | > 100 µM (inactive) | 45.2 µM (inactive) | > 100 µM (inactive) | > 100 µM (inactive) | > 100 µM (inactive) | > 100 µM (inactive) | > 100 µM (inactive) | > 100 µM (inactive) | > 100 µM (inactive) | > 100 µM (inactive) | > 100 µM (inactive) | > 100 µM (inactive) | > 100 µM (inactive) | > 100 µM (inactive) | > 100 µM (inactive) | > 100 µM (inactive) | > 100 µM (inactive) | > 100 µM (inactive) | 
CC(=O)Nc1ccc(C(=O)N2N=C(C)/C(=C/c3cccc(O)c3)C2=O)cc1 | > 100 µM (inactive) | > 100 µM (inactive) |  |  | > 100 µM (inactive) | > 100 µM (inactive) | > 100 µM (inactive) |  | > 100 µM (inactive) | > 100 µM (inactive) | > 100 µM (inactive) | > 100 µM (inactive) |  |  | > 100 µM (inactive) |  |  | > 100 µM (inactive) | > 100 µM (inactive)
Cc1cc2c(cc1C)[n+]([O-])c(C(=O)N1CCN(c3ccc([N+](=O)[O-])cc3)CC1)c(C)[n+]2[O-] | > 100 µM (inactive) | > 100 µM (inactive) | > 100 µM (inactive) | 63.2 µM (inactive) | 26.8 µM (inactive) | 26.5 µM (inactive) | 16.1 µM (inactive) | 27.6 µM (inactive) | 32.5 µM (inactive) | > 100 µM (inactive) | > 100 µM (inactive) | 12.8 µM (inactive) | 21.8 µM (inactive) | 22.6 µM (inactive) | 38.5 µM (inactive) | > 100 µM (inactive) | > 100 µM (inactive) | 74.6 µM (inactive) | 
COC(=O)C1CCC(=O)N1C(c1ccc(OC)cc1)c1ccc2c(c1)OCO2 (stereo not drawn) | 43.1 µM (inactive) | 23.4 µM (inactive) | 9.46 µM (inactive) | > 100 µM (inactive) | 28.7 µM (inactive) | 82.8 µM (inactive) | 17 µM (inactive) | 52 µM (inactive) | 28.5 µM (inactive) | > 100 µM (inactive) | 37.9 µM (inactive) | 53.2 µM (inactive) | > 100 µM (inactive) | 89.7 µM (inactive) | 43.7 µM (inactive) | 7.46 µM (inactive) | 43.3 µM (inactive) | 24.7 µM (inactive) | 
COc1cc(/C=C2\C[C@H]3[C@@H]4CCc5cc(O)ccc5[C@H]4CC[C@]3(C)C2=O)cc(OC)c1OC | 12.9 µM (inactive) | 12.3 µM (inactive) | 14 µM (inactive) | 13.5 µM (inactive) | 12.9 µM (inactive) | 14.4 µM (inactive) | 12.6 µM (inactive) | 15.3 µM (inactive) | 16.8 µM (inactive) | 15.8 µM (inactive) | 16.7 µM (inactive) | 12.4 µM (inactive) | 14.3 µM (inactive) | 18.9 µM (inactive) | 14 µM (inactive) | 15.6 µM (inactive) | 14.4 µM (inactive) | 4.31 µM (inactive) | 
